Source: patent publication US20120157471A1, “BENZIMIDAZOLE DERIVATIVES” (PFIZER INC., priority 2009, published 2012)

Columns and labels:
Gli-Luc/MEF cells (Smo) = test: Gli-Luc/MEF assay (Shh-stimulated luciferase reporter under the Gli response element); assay type: cell-based, mouse; conditions: Mus musculus, MEF, 48 h
Method in brief: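 IC50 derived from luminescence (Bright-Glo) after 48 h at 37° C, 5% CO2, with compound at […] (3-fold dilutions) added together with mouse Shh at 2 μg/mL final. Cells: MEFs from Gli-Luc transgenic mice.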

[1] = target: T1, human Smo (amino acids 181-787) (Homo sapiens, UniProt Q99835); test: Smo radioligand competition binding assay (displacement of 3H-PF-03451358 from HEK293 membranes); conditions: for inhibition at 0.05 µM: 0.05 μM test compound, displacement of 3H-PF-03451358, read-out: SMO % inh. @ 0.05 μM; for IC50: radioligand competition binding
T1 construct: expressed in transfected cells; membrane preparation
Method in brief: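 Displacement of 3 nM tritiated PF-03451358 measured by filtration and scintillation counting after 2 h at room temperature, using 40 μg/well HEK293 membranes bearing cell-surface Smo 181-787, pH 7.5 buffer. Specific binding defined against 30 μM unlabelled ligand; IC50 via variable-slope sigmoidal fit.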

T1 sequence (Q99835 181-787): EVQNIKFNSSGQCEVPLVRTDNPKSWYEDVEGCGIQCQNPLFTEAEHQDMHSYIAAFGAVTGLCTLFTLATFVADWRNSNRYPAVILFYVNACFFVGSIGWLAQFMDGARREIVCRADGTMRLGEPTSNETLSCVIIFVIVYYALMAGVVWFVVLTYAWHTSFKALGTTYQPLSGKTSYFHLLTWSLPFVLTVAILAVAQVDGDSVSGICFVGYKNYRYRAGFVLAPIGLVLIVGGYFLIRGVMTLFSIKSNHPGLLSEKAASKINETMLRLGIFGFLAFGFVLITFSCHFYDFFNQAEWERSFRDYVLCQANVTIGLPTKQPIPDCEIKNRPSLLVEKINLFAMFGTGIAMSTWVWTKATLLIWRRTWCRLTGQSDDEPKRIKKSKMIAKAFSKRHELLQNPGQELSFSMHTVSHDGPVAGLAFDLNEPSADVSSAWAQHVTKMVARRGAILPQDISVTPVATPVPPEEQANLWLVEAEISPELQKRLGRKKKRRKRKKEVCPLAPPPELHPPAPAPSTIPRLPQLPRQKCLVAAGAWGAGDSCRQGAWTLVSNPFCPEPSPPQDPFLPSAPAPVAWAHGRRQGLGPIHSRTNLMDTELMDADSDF

Row | SMILES | IC50 (Gli-Luc/MEF cells (Smo)) | inhibition at 0.05 µM [1] | IC50 [1]
1 | Cn1nc2n(c1=O)CCN(c1cc(-c3nc4ccccc4n3C)c(Cl)cn1)CC2 [Example A-78, 7-[5-chloro-4-(1-methyl-1H-benzimidazol-2-yl)pyridin-2-yl]-2-methyl-2,5,6,7,8,9-hexahydro-3H-[1,2,4]triazolo[4,3-d][1,4]diazepin-3-one] | 11 nM | 92% | 14 nM
2 | Cn1c(-c2cc(N3CCC(OCCO)CC3)ncc2Cl)nc2ccccc21 [Example A-79, 2-({1-[5-chloro-4-(1-methyl-1H-benzimidazol-2-yl)pyridin-2-yl]piperidin-4-yl}oxy)ethanol] | 7 nM | 92% | 23 nM
3 | Cn1c(-c2cc(N3CCC(C(=O)N4CCOCC4)CC3)ncc2Cl)nc2ccccc21 [Example A-80, 2-{5-chloro-2-[4-(morpholin-4-ylcarbonyl)piperidin-1-yl]pyridin-4-yl}-1-methyl-1H-benzimidazole] | 8 nM | 92% | 45 nM
4 | Cn1c(-c2cc(N3CCC(N4CCCC4=O)CC3)ncc2Cl)nc2ccccc21 [Example A-81, 1-{1-[5-chloro-4-(1-methyl-1H-benzimidazol-2-yl)pyridin-2-yl]piperidin-4-yl}pyrrolidin-2-one] | 10 nM | 91% | 24 nM
5 | Cn1c(-c2cc(N3C[C@@H](CO)[C@@H](CO)C3)ncc2Cl)nc2ccccc21 [Example A-82, {(3R,4S)-1-[5-chloro-4-(1-methyl-1H-benzimidazol-2-yl)pyridin-2-yl]pyrrolidine-3,4-diyl}dimethanol] | 16 nM | 91% | 43 nM
6 | COCCc1nnc2n1CCN(c1cc(-c3nc4ccccc4n3C)c(Cl)cn1)C2 [Example A-83, 7-[5-chloro-4-(1-methyl-1H-benzimidazol-2-yl)pyridin-2-yl]-3-(2-methoxyethyl)-5,6,7,8-tetrahydro[1,2,4]triazolo[4,3-a]pyrazine] | 23 nM | 91% | 49 nM
7 | CNC(=O)COC1CCN(c2cc(-c3nc4ccccc4n3C)c(Cl)cn2)CC1 [Example A-84, 2-({1-[5-chloro-4-(1-methyl-1H-benzimidazol-2-yl)pyridin-2-yl]piperidin-4-yl}oxy)-N-methylacetamide] | 42 nM | 91% | 21 nM
8 | Cn1c(-c2cc(N3CCC(CO)(CCO)C3)ncc2Cl)nc2ccccc21 (stereo not drawn) [Example A-85, 2-{1-[5-chloro-4-(1-methyl-1H-benzimidazol-2-yl)pyridin-2-yl]-3-(hydroxymethyl)pyrrolidin-3-yl}ethanol] | 7 nM | 90% | 17 nM
9 | Cn1c(-c2cc(N3CCN(C4CCS(=O)(=O)C4)CC3)ncc2Cl)nc2ccccc21 (stereo not drawn) [Example A-86, 2-{5-chloro-2-[4-(1,1-dioxidotetrahydro-3-thienyl)piperazin-1-yl]pyridin-4-yl}-1-methyl-1H-benzimidazole] | 43 nM | 90% | 61 nM
10 | CC(=O)NCC1CCN(c2cc(-c3nc4ccccc4n3C)c(Cl)cn2)CC1 [Example A-87, N-({1-[5-chloro-4-(1-methyl-1H-benzimidazol-2-yl)pyridin-2-yl]piperidin-4-yl}methyl)acetamide] | 9 nM | 89% | 58 nM
11 | Cn1c(-c2cc(N3CCC(O)(CN4CCOCC4)CC3)ncc2Cl)nc2ccccc21 [Example A-88, 1-[5-chloro-4-(1-methyl-1H-benzimidazol-2-yl)pyridin-2-yl]-4-(morpholin-4-ylmethyl)piperidin-4-ol] | 28 nM | 89% | 61 nM
12 | Cn1c(-c2cc(N3CCS(=O)(=O)CC3)ncc2Cl)nc2ccccc21 [Example A-89, 2-[5-chloro-2-(1,1-dioxidothiomorpholin-4-yl)pyridin-4-yl]-1-methyl-1H-benzimidazole] | 44 nM | 88% | 40 nM
13 | COC1CCOC2(CCN(c3cc(-c4nc5ccccc5n4C)c(Cl)cn3)CC2)C1 (stereo not drawn) [Example A-90, 9-[5-chloro-4-(1-methyl-1H-benzimidazol-2-yl)pyridin-2-yl]-4-methoxy-1-oxa-9-azaspiro[5.5]undecane] | 16 nM | 88% | 71 nM
14 | Cn1c(-c2cc(N3CCC(N4CCNC(=O)CC4)CC3)ncc2Cl)nc2ccccc21 [Example A-91, 1-{1-[5-chloro-4-(1-methyl-1H-benzimidazol-2-yl)pyridin-2-yl]piperidin-4-yl}-1,4-diazepan-5-one] | 16 nM | 88% | 55 nM
15 | COCc1nnc2n1CCN(c1cc(-c3nc4ccccc4n3C)c(Cl)cn1)CC2 [Example A-93, 7-[5-chloro-4-(1-methyl-1H-benzimidazol-2-yl)pyridin-2-yl]-3-(methoxymethyl)-6,7,8,9-tetrahydro-5H-[1,2,4]triazolo[4,3-d][1,4]diazepine] | 31 nM | 87% | 53 nM
16 | Cn1c(-c2cc(N3CC(O)C3)ncc2Cl)nc2ccccc21 [Example A-94, 1-[5-chloro-4-(1-methyl-1H-benzimidazol-2-yl)pyridin-2-yl]azetidin-3-ol] | 46 nM | 87% | 87 nM
17 | Cn1c(-c2cc(N3CC[C@@H](O)[C@@H](O)C3)ncc2Cl)nc2ccccc21 [Example A-96, (3S,4R)-1-[5-chloro-4-(1-methyl-1H-benzimidazol-2-yl)pyridin-2-yl]piperidine-3,4-diol] | 16 nM | 86% | 46 nM
18 | Cc1nnc(C2CCN(c3cc(-c4nc5ccccc5n4C)c(Cl)cn3)CC2)o1 [Example A-97, 2-{5-chloro-2-[4-(5-methyl-1,3,4-oxadiazol-2-yl)piperidin-1-yl]pyridin-4-yl}-1-methyl-1H-benzimidazole] | 25 nM | 85% | 32 nM
19 | Cn1c(-c2cc(N3CCC(N4CCNC(=O)C4=O)CC3)ncc2Cl)nc2ccccc21 [Example A-98, 1-{1-[5-chloro-4-(1-methyl-1H-benzimidazol-2-yl)pyridin-2-yl]piperidin-4-yl}piperazine-2,3-dione] | 66 nM | 85% | 122 nM
20 | COCCc1[nH]nc2c1CN(c1cc(-c3nc4ccccc4n3C)c(Cl)cn1)CC2 [Example A-99, 5-[5-chloro-4-(1-methyl-1H-benzimidazol-2-yl)pyridin-2-yl]-3-(2-methoxyethyl)-4,5,6,7-tetrahydro-1H-pyrazolo[4,3-c]pyridine] | 28 nM | 84% | 84 nM
21 | Cn1c(-c2cc(N3CCC(C(=O)N4CCCC4)CC3)ncc2Cl)nc2ccccc21 [Example A-100, 2-{5-chloro-2-[4-(pyrrolidin-1-ylcarbonyl)piperidin-1-yl]pyridin-4-yl}-1-methyl-1H-benzimidazole] | 21 nM | 83% | 55 nM
22 | Cn1c(-c2cc(N3CCn4c(nnc4C(F)F)C3)ncc2Cl)nc2ccccc21 [Example A-101, 7-[5-chloro-4-(1-methyl-1H-benzimidazol-2-yl)pyridin-2-yl]-3-(difluoromethyl)-5,6,7,8-tetrahydro[1,2,4]triazolo[4,3-a]pyrazine] | 95 nM | 81% | 103 nM
23 | Cn1c(-c2cc(N3CCC(CO)C3)ncc2Cl)nc2ccccc21 (stereo not drawn) [Example A-102, {1-[5-chloro-4-(1-methyl-1H-benzimidazol-2-yl)pyridin-2-yl]pyrrolidin-3-yl}methanol] | 40 nM | 80% | 91 nM
24 | Cn1c(-c2cc(N3CCN(CC(O)CO)CC3)ncc2Cl)nc2ccccc21 (stereo not drawn) [Example A-103, 3-{4-[5-chloro-4-(1-methyl-1H-benzimidazol-2-yl)pyridin-2-yl]piperazin-1-yl}propane-1,2-diol] | 27 nM | 80% | 153 nM
25 | CNS(=O)(=O)C1CCN(c2cc(-c3nc4ccccc4n3C)c(Cl)cn2)C1 (stereo not drawn) [Example A-104, 1-[5-chloro-4-(1-methyl-1H-benzimidazol-2-yl)pyridin-2-yl]-N-methylpyrrolidine-3-sulfonamide] | 23 nM | 80% | 37 nM
26 | Cn1c(-c2cc(N3CCC(O)(c4ccn[nH]4)C3)ncc2Cl)nc2ccccc21 (stereo not drawn) [Example A-105, 1-[5-chloro-4-(1-methyl-1H-benzimidazol-2-yl)pyridin-2-yl]-3-(1H-pyrazol-5-yl)pyrrolidin-3-ol] | 24 nM | 79% | 65 nM
27 | Cn1c(-c2cc(N3CCn4c(CCCO)nnc4C3)ncc2Cl)nc2ccccc21 [Example A-106, 3-{7-[5-chloro-4-(1-methyl-1H-benzimidazol-2-yl)pyridin-2-yl]-5,6,7,8-tetrahydro[1,2,4]triazolo[4,3-a]pyrazin-3-yl}propan-1-ol] | 116 nM | 78% | 217 nM
28 | Cn1c(-c2cc(N3CCc4[nH]cnc4C3)ncc2Cl)nc2ccccc21 [Example A-107, 5-[5-chloro-4-(1-methyl-1H-benzimidazol-2-yl)pyridin-2-yl]-4,5,6,7-tetrahydro-1H-imidazo[4,5-c]pyridine] | 37 nM | 77% | 123 nM
